From patent US8119616B2, “Formulation of quinazoline based EGFR inhibitors containing a zinc binding moiety” (Curis, Inc., priority 2007, dated 2012)
pIC50: −log10 of the molar value.

Tests used:
[1] = Dilution study with D5W; type: physicochemical; details: 30% CAPTISOL solution
[2] = target: T1, human EGFR (Homo sapiens, UniProt P00533); test: HTScan EGF Receptor Kinase assay; type: biochemical
T1 construct: human EGFR (His672-Ala1210); purchased Cell Signaling Technologies; host or cells: baculovirus expression system
Description: The ability of compounds to inhibit receptor kinase (EGFR) activity was assayed using HTScan™ EGF Receptor Kinase Assay Kits (Cell Signaling Technologies, Danvers, Mass.). […] The protein was purified by one-step affinity chromatography using glutathione-agarose.
Immediately transfer enzyme from −80° C. to ice. Allowed enzyme to thaw on ice. […] Returned immediately to ice. […] Incubated reaction plate at room temperature for 30 minutes. […] Added 100 μl/well primary antibody. Incubated at room temperature for 60 minutes. […] Added 100 μl/well diluted antibody. Incubated at room temperature for 30 minutes. […] Incubated at room temperature for 5 minutes.

[3] = tested on: Lung_HCC827; test: Cell proliferation assay (ATPlite); type: cell-based; details: 72 hours, 0.5% fetal bovine serum
Description: Cancer cell lines were plated at 5,000 to 10,000 per well in 96-well flatted bottomed plates with various concentration of compounds. […] Growth inhibition was accessed by adenosine triphosphate (ATP) content assay using Perkin Elmer ATPlite kit. […] Briefly, 25 μl of mammalian cell lysis solution was added to 50 μl of phenol red-free culture medium per well to lyse the cells and stabilize the ATP. 25 μl of substrate solution was then added to the well and subsequently the luminescence was measured.

[4] = tested on: Lung_H358; test: Cell proliferation assay (ATPlite); type: cell-based; details: 72 hours, 0.5% fetal bovine serum
Description: (§1) A representative number of compounds were assayed against several different cell lines using the cell proliferation assay:
(§2) Cell Proliferation Assay:
(§3) Cancer cell lines were plated at 5,000 to 10,000 per well in 96-well flatted bottomed plates with various concentration of compounds. The cells were incubated with compounds for 72 hours in the presence of 0.5% of fetal bovine serum. Growth inhibition was accessed by adenosine triphosphate (ATP) content assay using Perkin Elmer ATPlite kit. ATPlite is an ATP monitoring system based on firefly luciferase. Briefly, 25 μl of mammalian cell lysis solution was added to 50 μl of phenol red-free culture medium per well to lyse the cells and stabilize the ATP. 25 μl of substrate solution was then added to the well and subsequently the luminescence was measured.

[5] = tested on: Pancreas_Capan1; test: Cell proliferation assay (ATPlite); type: cell-based; details: 72 hours, 0.5% fetal bovine serum
Description: as §1, §2, §3

[6] = tested on: Pancreas_BxPC3; test: Cell proliferation assay (ATPlite); type: cell-based; details: 72 hours, 0.5% fetal bovine serum
Description: as §1, §2, §3

[7] = tested on: Lung_H2122; test: Cell proliferation assay (ATPlite); type: cell-based; details: 72 hours, 0.5% fetal bovine serum
Description: as §1, §2, §3

[8] = tested on: Lung_H460; test: Cell proliferation assay (ATPlite); type: cell-based; details: 72 hours, 0.5% fetal bovine serum
Description: as §1, §2, §3

[9] = tested on: Lung_H1975; test: Cell proliferation assay (ATPlite); type: cell-based; details: 72 hours, 0.5% fetal bovine serum
Description: as §1, §2, §3

[10] = tested on: Lung_H1703; test: Cell proliferation assay (ATPlite); type: cell-based; details: 72 hours, 0.5% fetal bovine serum
Description: as §1, §2, §3

[11] = tested on: Pancreas_PANC1; test: Cell proliferation assay (ATPlite); type: cell-based; details: 72 hours, 0.5% fetal bovine serum
Description: as §1, §2, §3

[12] = tested on: Pancreas_MiaPaCa2; test: Cell proliferation assay (ATPlite); type: cell-based; details: 72 hours, 0.5% fetal bovine serum
Description: as §1, §2, §3

[13] = tested on: Pancreas_CFPAC; test: Cell proliferation assay (ATPlite); type: cell-based; details: 72 hours, 0.5% fetal bovine serum
Description: as §1, §2, §3

[14] = tested on: Pancreas_HPAC; test: Cell proliferation assay (ATPlite); type: cell-based; details: 72 hours, 0.5% fetal bovine serum
Description: as §1, §2, §3

[15] = tested on: A549 NSCLC; test: A549 NSCLC Xenograft model; type: in vivo, mice; details: compared with vehicle or control
Description: A representative protocol for the in vivo experiment is as followed:
1-10×10^6 human cancer cells were implanted subcutaneously to the athymic (nu/nu) mice. When the tumors reached about 100 mm^3 in volume, the mice were treated with the compound by tail vein infusion. Routinely 5 groups (8-12 mice per group) are needed for a typical efficacy study, including one negative control, one positive control, and three testing groups for 3 dose levels of the same compound. Usually a 7-7-5 (on-off-on) regimen was used for one typical study. The tumor size was measured with an electronic caliper and body weight measured with a scale twice weekly. The tumors were removed from euthanized mice at the end of the study. One half of each tumor was frozen in dry ice and stored at −80° C. for PK or Western blot analysis. The other half was fixed with formalin. The fixed tissues were processed, embedded in paraffin and sectioned for immunohistochemistry staining. Protocol for Radioisotope assay for HER2

[16] = tested on: Colon_HCT116; test: Cell proliferation assay (ATPlite); type: cell-based; details: 72 hours, 0.5% fetal bovine serum
Description: as §1, §2, §3

[17] = tested on: T2, HDAC; test: HDAC fluorimetric enzyme assay (HeLa nuclear extract); type: biochemical; details: FIG. 1
T2 construct: rows headed: HDAC IC50
Description: HDAC inhibitors were screened using an HDAC fluorimetric assay kit (AK-500, Biomol, Plymouth Meeting, Pa.). […] Fluorescence was measured on a WALLAC Victor 2 plate reader and reported as relative fluorescence units (RFU). Data were plotted using GraphPad Prism (v4.0a) and IC50's calculated using a sigmoidal dose response curve fitting algorithm. Each assay was setup as follows: Defrosted all kit components and kept on ice until use. […] Prepared dilutions of Trichostatin A (TSA, positive control) and tested compounds in assay buffer (5× of final concentration). Diluted Fluor de Lys™ Substrate in assay buffer to 100 uM (50 fold=2× final). Diluted Fluor de Lys™ developer concentrate 20-fold (e.g. 50 μl plus 950 μl Assay Buffer) in cold assay buffer. Second, diluted the 0.2 mM Trichostatin A 100-fold in the 1× Developer (e.g. 10 μl in 1 ml; final Trichostatin A concentration in the 1× Developer=2 μM; final concentration after addition to HDAC/Substrate reaction=1 μM). Added Assay buffer, diluted trichostatin A or test inhibitor to appropriate wells of the microtiter plate. Added diluted HeLa extract or other HDAC sample to all wells except for negative controls.

[18] = tested on: Prostate_PC3; test: Cell proliferation assay (ATPlite); type: cell-based; details: 72 hours, 0.5% fetal bovine serum
Description: as §1, §2, §3

T1 sequence (P00533 672-1210): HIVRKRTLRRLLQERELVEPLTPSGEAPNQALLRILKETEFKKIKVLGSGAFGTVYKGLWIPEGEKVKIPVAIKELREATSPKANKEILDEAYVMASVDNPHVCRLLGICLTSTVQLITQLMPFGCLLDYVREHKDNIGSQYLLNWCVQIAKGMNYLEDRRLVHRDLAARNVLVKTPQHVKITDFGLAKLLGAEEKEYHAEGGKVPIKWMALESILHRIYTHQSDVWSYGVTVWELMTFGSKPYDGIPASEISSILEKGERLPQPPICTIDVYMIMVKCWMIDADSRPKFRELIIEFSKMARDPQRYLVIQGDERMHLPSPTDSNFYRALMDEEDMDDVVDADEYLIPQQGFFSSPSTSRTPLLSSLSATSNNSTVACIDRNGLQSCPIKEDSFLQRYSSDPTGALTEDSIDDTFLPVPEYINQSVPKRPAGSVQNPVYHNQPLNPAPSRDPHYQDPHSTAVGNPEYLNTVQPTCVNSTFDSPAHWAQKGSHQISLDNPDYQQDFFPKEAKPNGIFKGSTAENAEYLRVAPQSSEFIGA

Molecule	pIC50 [6]	pIC50 [11]	pIC50 [12]	pIC50 [13]	pIC50 [14]	further results
Tartaric Acid	–	–	–	–	–	Dilution with D5W [1]: >50x
COc1cc2ncnc(Nc3ccc(F)c(Cl)c3)c2cc1OCCOc1ccc(C(=O)NO)cc1 [Compound 92, 4-(2-(4-(3-chloro-4-fluorophenylamino)-7-methoxyquinazolin-6-yloxy)ethoxy)-N-hydroxybenzamide]	–	–	–	–	–	pIC50 [2]: > 7.00
C#Cc1cccc(Nc2ncnc3cc(OC)c(NC(=O)CCCCCCC(=O)NO)cc23)c1 [Compound 44, N^1-(4-(3-ethynylphenylamino)-7-methoxyquinazolin-6-yl)-N^8-hydroxyoctanediamide]	5.00 to 6.00	–	–	–	–	pIC50 [3]: 6.00 to 7.00; pIC50 [4]: 5.00 to 6.00; pIC50 [5]: 5.00 to 6.00; pIC50 [7]: 5.00 to 6.00; pIC50 [8]: 5.00 to 6.00; pIC50 [9]: 5.00 to 6.00; pIC50 [10]: 5.00 to 6.00
COc1cc2ncnc(Nc3ccc(F)c(Cl)c3)c2cc1NC(=O)CCCCCCC(=O)NO [Compound 40, N^1-(4-(3-chloro-4-fluorophenylamino)-7-methoxyquinazolin-6-yl)-N^8-hydroxyoctanediamide]	–	5.00 to 6.00	5.00 to 6.00	5.00 to 6.00	5.00 to 6.00	–
COCCOc1cc2ncnc(Nc3ccc(F)c(Cl)c3)c2cc1NC(=O)CCCCCCC(=O)NO [Compound 70, N^1-(4-(3-chloro-4-fluorophenylamino)-7-(2-methoxyethoxy)quinazolin-6-yl)-N^8-hydroxyoctanediamide]	–	5.00 to 6.00	5.00 to 6.00	5.00 to 6.00	< 5.00	pIC50 [2]: > 7.00
C#Cc1cccc(Nc2ncnc3cc(OCCOC)c(OCCOC)cc23)c1 [Erlotinib, reference compound]	–	–	–	–	–	effect on tumor size / tumor growth [15]: did not significantly affect tumor size
COc1cc2ncnc(NCc3ccccc3)c2cc1OCCCCCCC(=O)NO [Compound 85, 7-(4-(Benzylamino)-7-methoxyquinazolin-6-yloxy)-N-hydroxyheptanamide]	6.00 to 7.00	5.00 to 6.00	5.00 to 6.00	–	5.00 to 6.00	pIC50 [16]: 6.00 to 7.00
O=C(CCCCCCOc1ccc2ncnc(Nc3ccc(F)c(Cl)c3)c2c1)NO [Compound 18, 7-(4-(3-chloro-4-fluorophenylamino)quinazolin-6-yloxy)-N-hydroxyheptanamide]	–	6.00 to 7.00	6.00 to 7.00	6.00 to 7.00	5.00 to 6.00	pIC50 [16]: 6.00 to 7.00
COc1cc2ncnc(Nc3ccc(F)c(Cl)c3)c2cc1OCCCCCCC(=O)NO [Compound 6, 7-(4-(3-Chloro-4-fluorophenylamino)-7-methoxyquinazolin-6-yloxy)-N-hydroxyheptanamide]	6.00 to 7.00	–	–	–	–	activity in HDAC enzyme assay compared with erlotinib and SAHA [17]: more active than erlotinib and SAHA; activity in EFGR enzyme assay compared with erlotinib and SAHA ([2]; FIG. 1): more active than erlotinib and SAHA; pIC50 [4]: 6.00 to 7.00; pIC50 [5]: 5.00 to 6.00; pIC50 [7]: 6.00 to 7.00; pIC50 [18]: 6.00 to 7.00; pIC50 [8]: 6.00 to 7.00; pIC50 [9]: 6.00 to 7.00
COc1cc2ncnc(N[C@H](C)c3ccccc3)c2cc1OCCCCCC(=O)NO [Compound 77, (R)—N-hydroxy-6-(7-methoxy-4-(1-phenylethylamino)quinazolin-6-yloxy)-hexanamide]	–	< 5.00	6.00 to 7.00	5.00 to 6.00	< 5.00	–
COc1cc2ncnc(N[C@H](C)c3ccccc3)c2cc1OCCCCCCC(=O)NO [Compound 79, (R)—N-hydroxy-7-(7-methoxy-4-(1-phenylethylamino)quinazolin-6-yloxy)heptanamide]	–	5.00 to 6.00	5.00 to 6.00	5.00 to 6.00	< 5.00	–
COc1cc2ncnc(Nc3ccc(F)c(Cl)c3)c2cc1OCCOc1ccc(/C=C/C(=O)NO)cc1 [Compound 66, (E)-3-(4-(2-(4-(3-chloro-4-fluorophenylamino)-7-methoxyquinazolin-6-yloxy)ethoxy)phenyl)-N-hydroxyacrylamide]	5.00 to 6.00	5.00 to 6.00	5.00 to 6.00	–	5.00 to 6.00	–
